Each structure is given as a SMILES string.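 Following 48 hours of exposure in 96-well plates, responses at five concentrations were used to interpolate endpoints linearly. TGI marks complete inhibition of growth.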 Some results are limits rather than exact numbers.

Common to all, as to assay: NCI anticancer screen, dose series, 48 h
In assay [1] the test system is NCI-H522 lung.
In assay [2] the test system is HS 578T breast.
In assay [3] the test system is UACC-62 melanoma.
In assay [4] the test system is PC-3 prostate.
Assay [5] concerns HOP-92 NSCLC.
Assay [6] concerns CCRF-CEM leukemia.
The test system of assay [7] is LOX IMVI melanoma.
Assay [8] concerns SK-MEL-2 melanoma.

For the molecule `Cc1ccc2oc3c(ccc(=O)n3C)c(=O)c2c1`, the TGI in assay [1], in assay [2], in assay [3], in assay [4], in assay [5] and in assay [6] was > 100 µM in each case. For the same molecule, the TGI in assay [7] and in assay [8] was > 100 µM each time.
With `COc1cc(S(=O)(=O)Nc2ccc(-c3csc(/N=C\c4cccs4)n3)cc2)ccc1Cl`, the TGI in assay [1] is > 100 µM; in assay [2], > 100 µM; in assay [3] it was 92.2 µM; in assay [4], > 100 µM; in assay [5], > 100 µM; in assay [6] it was 80.3 µM. In addition, the TGI in assay [7] and in assay [8] was > 100 µM each time.
For `O=C1Nc2ccccc2C1S(=O)(=O)c1ccccc1` (centres undefined), the TGI in assay [1], in assay [2], in assay [3], in assay [4], in assay [5] and in assay [6] was > 100 µM each time. Besides, the TGI in assay [7] and in assay [8] was > 100 µM throughout.
On to `COc1cccc(N2C(=O)C3CC(CC(C)(C)C)c4c([nH]c5ccccc45)C3C2=O)c1` (centres undefined), for which the TGI in assay [1] is > 10 µM; in assay [2], 9.87 µM; in assay [3] it was > 10 µM; in assay [4], > 10 µM; in assay [5] it was > 10 µM; in assay [6] it was > 10 µM. Further, the TGI in assay [7] and in assay [8] was > 10 µM each time.
For the molecule `CC(C)=NNc1ncnc2nc[nH]c12`, the TGI in assay [1] was 32.2 µM; in assay [2], 83.9 µM; in assay [3], 20 µM; in assay [4] it was > 100 µM; in assay [5], > 93.8 µM; in assay [6], > 100 µM. The TGI in assay [7] was > 100 µM; in assay [8], > 67.8 µM.
With `O/N=C1\CSc2ccccc2C1`, the TGI in assay [1], in assay [2], in assay [3], in assay [4], in assay [5] and in assay [6] was > 100 µM throughout. Moreover, the TGI in assay [7] and in assay [8] was > 100 µM throughout.
With `O=c1[nH]nc(Cc2ccccc2)n1C1CC1`, the TGI in assay [1], in assay [2], in assay [3], in assay [4], in assay [5] and in assay [6] was > 100 µM throughout. For the same molecule, in assay [7], the TGI is > 100 µM.
Take `CC(=O)Oc1ccc2cc(Oc3ccccc3)c(=O)oc2c1`: the TGI in assay [1] is 70.7 µM; in assay [2], > 100 µM; in assay [4], > 100 µM; in assay [5] it was > 100 µM; in assay [7], > 100 µM.
`O=S(=O)(/N=C(\NO)Nc1ccc(Cl)cc1)c1cc(S(=O)(=O)c2ccccc2)cs1`: the TGI in assay [1] was 25.2 µM; in assay [2] it was 54.8 µM; in assay [3], 43.1 µM; in assay [4], 33.9 µM; in assay [5] it was 31.5 µM; in assay [6] it was 43.5 µM. In addition, the results for the TGI in assay [7] and in assay [8] were 39 µM and 45.9 µM, respectively.
As for `CC(=O)O[C@H]1C[C@@H](OC(C)=O)[C@@](C)(O)[C@@H]2[C@@H](OC(C)=O)[C@@]3(O)[C@H](/C=C(/CCl)[C@H]4O[C@H]4[C@@H](OC(C)=O)[C@@]12C)OC(=O)[C@@H]3C`, the TGI in assay [1], in assay [2], in assay [3], in assay [4], in assay [5] and in assay [6] was > 25 µM throughout. In addition, the TGI in assay [7] and in assay [8] was > 25 µM in each case.
Turning to `O=C(/C=C/c1ccc(Cl)cc1)c1ccc(Cl)s1`, the TGI was > 100 µM in assay [1]; > 100 µM in assay [2]; 93 µM in assay [3]; > 100 µM in assay [4]; > 100 µM in assay [5]; 83.7 µM in assay [6]. Also, in assay [7], the TGI stood at 26.2 µM.
On to `O=C1NC2=NN=C(c3ccc(Br)cc3)CN2NC12c1ccccc1-c1ccccc12`, for which the TGI in assay [1], in assay [2], in assay [3], in assay [4], in assay [5] and in assay [7] was > 100 µM each time. Further, the TGI in assay [8] was > 100 µM.
Turning to `CC(=O)O[C@H]1C[C@H]2[C@@H]([C@H](OC(C)=O)C[C@@H]3CC4(CC[C@@]32C)OOC2(CCCCC2)OO4)[C@@H]2CC[C@H]([C@H](C)CCC(=O)O)[C@@]12C`, the TGI worked out at 9.36 µM in assay [1]; 9.32 µM in assay [2]; 22.2 µM in assay [4]; 7.1 µM in assay [5]; 15.5 µM in assay [6]; 15.8 µM in assay [7]. In assay [8], this molecule returned a TGI of 26.5 µM.
In the case of `O=S(=O)(O)c1ccc2c(N=Nc3c(O)ccc4ccccc34)cccc2c1`, the TGI in assay [1], in assay [2], in assay [3], in assay [4], in assay [5] and in assay [6] was > 100 µM throughout. Moreover, the TGI in assay [7] and in assay [8] was > 100 µM throughout.
For the molecule `Cc1cc(/N=C/c2ccc(Cl)cc2)n(-c2ccccc2)n1`, the TGI in assay [1], in assay [2], in assay [3], in assay [4], in assay [5] and in assay [6] was > 100 µM in each case. Also, the TGI in assay [7] and in assay [8] was > 100 µM in each case.
Turning to `Nc1nc2c(c(=O)[nH]1)NC(CCNc1ccc(C(=O)O)cc1)CN2` (centres undefined), the TGI in assay [1], in assay [2], in assay [3], in assay [4], in assay [5] and in assay [6] was > 100 µM in each case. The TGI in assay [7] and in assay [8] was > 100 µM in each case.
As for `CC(C)(CC1(C)NC(=O)NC1=O)OCc1ccccc1` (centres undefined), the TGI in assay [1], in assay [2], in assay [3], in assay [4], in assay [5] and in assay [7] was > 100 µM each time. Moreover, the TGI in assay [8] was > 100 µM.
With `O=C(O)c1ccccc1CC(Cc1ccccc1)C(=O)O` (centres undefined), the TGI in assay [1], in assay [2], in assay [4], in assay [5], in assay [6] and in assay [7] was > 100 µM throughout. The TGI in assay [8] is > 100 µM.
Turning to `CC(=O)Oc1ccc(/C=C/C(=O)NCCOC(=O)/C=C/c2ccc(OC(C)=O)c(OC(C)=O)c2)cc1OC(C)=O`, the TGI in assay [1] was 29.6 µM; in assay [2] it was > 100 µM; in assay [3] it was 49.1 µM; in assay [4] it was > 100 µM; in assay [5], 95.6 µM; in assay [7] it was 38.6 µM. In addition, the TGI in assay [8] was > 100 µM.
With `COC(=O)C1(Cc2ccccc2)Cc2c(C)ccc(C)c2C1=O` (centres undefined), the TGI was 56.2 µM in assay [1]; 62 µM in assay [2]; 54.8 µM in assay [3]; 78.2 µM in assay [4]; 54.3 µM in assay [5]; > 100 µM in assay [6]. The molecule further gave a TGI in assay [7] of 34.6 µM.
Turning to `OC1CSCCSCCCSCCSC1`, the TGI in assay [1], in assay [2], in assay [3], in assay [4], in assay [5] and in assay [7] was > 100 µM in each case. Also, the TGI in assay [8] is > 100 µM.
As to `CCCCOc1ccc(S(=O)(=O)/N=C(\N)Nc2ccc(Cl)cc2)cc1`, the TGI in assay [1] turned out to be 23 µM; in assay [2], 40.2 µM; in assay [3], 27.1 µM; in assay [4], 31 µM; in assay [5], 23.7 µM; in assay [7] it was 32.8 µM. This molecule showed a TGI in assay [8] of 31.6 µM.
For the molecule `N=C(N)c1ccc(N=Nc2c(O)ccc3cc(O)ccc23)cc1`, the TGI in assay [1], in assay [2], in assay [3], in assay [4], in assay [5] and in assay [6] was > 100 µM in each case. The TGI in assay [8] is > 100 µM.
As for `O=C1c2ccccc2/C=C\C(c2ccccc2)=N/N1c1ccccc1Cl`, the TGI was 35.8 µM in assay [1]; > 100 µM in assay [2]; 28.6 µM in assay [4]; 78.4 µM in assay [5]; > 100 µM in assay [6]; > 100 µM in assay [7]. The TGI in assay [8] is > 100 µM.
With `O=C([O-])C1([n+]2c(-c3ccccc3)cc(-c3ccccc3)cc2-c2ccccc2)CC1`, the TGI in assay [1] is > 100 µM; in assay [2], > 100 µM; in assay [3], 67.7 µM; in assay [4], > 100 µM; in assay [5], > 100 µM; in assay [6] it was > 100 µM. Moreover, in assay [7], the TGI is > 100 µM.
